Experimental data: patent US8871753B2, “Macrocyclic compounds and their use as kinase inhibitors” (Incyte Corporation, priority 2008, dated 2014)
Counter-ions that a name gives are not always drawn. Like-named read-outs stand apart in the source and are kept apart here.

Columns and labels:
Assay type in all cases: biochemical
[1] = target: T1, human JAK1 (a.a. 837-1142) (Homo sapiens, UniProt P23458); assay: In vitro JAK kinase assay (HTRF, phosphorylation of a biotinylated peptide), JAK1; settings: read-out: JAK1 IC50
T1 construct: human JAK1 (a.a. 837-1142); His tag (N); made in house; host or cells: insect cells (baculovirus)
How it was run: (§1)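 Phosphorylation of a biotinylated peptide by the JAK kinase domain, detected by HTRF with Eu-Py20 and SA-APC. ATP was 90 μM for JAK1, 30 μM for JAK2 and 3 μM for JAK3. Reactions ran 1 h at room temperature and were stopped with EDTA, followed by 40 min antibody binding.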

[2] = target: T2, human JAK2 (a.a. 828-1132) (Homo sapiens, UniProt O60674); assay: In vitro JAK kinase assay (HTRF, phosphorylation of a biotinylated peptide), JAK2
T2 construct: JAK2 (a.a. 828-1132); His tag (N); made in house; host or cells: insect cells (baculovirus)
How it was run: as §1

[3] = target: T3, human JAK3 (a.a. 781-1124) (Homo sapiens, UniProt P52333); assay: In vitro JAK kinase assay (HTRF, phosphorylation of a biotinylated peptide), JAK3
T3 construct: JAK3 (a.a. 781-1124); His tag (N); made in house; host or cells: insect cells (baculovirus)
How it was run: as §1

TYK2 = TYK2 (Homo sapiens, UniProt P29597); assay: TYK2 kinase inhibition (Table A1)
[4] = target: T4, Recombinant Human Anaplastic Lymphoma Kinase (Homo sapiens, UniProt Q9UM73); assay: ALK HTRF kinase assay
T4 construct: purchased Invitrogen, Carlsbad, Calif
How it was run: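 Recombinant human ALK phosphorylated a biotinylated synthetic peptide. Phosphotyrosine was detected by TR-FRET between a Eu-labelled anti-phosphotyrosine antibody and streptavidin-allophycocyanin. IC50 values came from fitting signal against inhibitor concentration to a four-parameter logistic equation with variable Hill slope.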

[5] = compound at a concentration of 500 nM or 1 mM (not specified), cells shown as percentage
[6] = method AA1 (90 μM ATP) or AA2 (1000 μM ATP), not stated per value
[7] = method AA1 (30 μM ATP) or AA2 (1000 μM ATP), not stated per value
[8] = method AA1 (3 μM ATP) or AA2 (1000 μM ATP), not stated per value
[9] = compound at 500 nM or 1 mM, 90 μM ATP
[10] = Table B1, cells without percent sign
[11] = percentage inhibition of the example compound at a concentration of 500 nM or 1 mM (not specified which)

T2 sequence (O60674 828-1132): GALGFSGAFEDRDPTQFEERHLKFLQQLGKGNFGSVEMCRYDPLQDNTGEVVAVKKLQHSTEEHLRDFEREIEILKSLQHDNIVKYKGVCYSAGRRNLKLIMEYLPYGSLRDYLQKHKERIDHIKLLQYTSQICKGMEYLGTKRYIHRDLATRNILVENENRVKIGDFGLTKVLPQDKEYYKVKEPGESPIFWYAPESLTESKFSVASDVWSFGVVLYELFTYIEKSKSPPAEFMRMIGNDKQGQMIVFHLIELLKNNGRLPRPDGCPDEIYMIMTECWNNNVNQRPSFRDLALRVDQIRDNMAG
T1 sequence (P23458 849-1154): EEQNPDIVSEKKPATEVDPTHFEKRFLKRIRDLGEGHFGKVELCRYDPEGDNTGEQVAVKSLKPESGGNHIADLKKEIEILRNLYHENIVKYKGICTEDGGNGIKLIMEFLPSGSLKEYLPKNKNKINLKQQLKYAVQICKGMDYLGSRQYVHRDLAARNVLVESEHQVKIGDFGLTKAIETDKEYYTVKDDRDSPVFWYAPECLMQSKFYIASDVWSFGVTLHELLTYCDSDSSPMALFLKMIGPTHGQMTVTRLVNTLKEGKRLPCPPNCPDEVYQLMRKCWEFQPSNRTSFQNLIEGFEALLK
T3 sequence (P52333 781-1124): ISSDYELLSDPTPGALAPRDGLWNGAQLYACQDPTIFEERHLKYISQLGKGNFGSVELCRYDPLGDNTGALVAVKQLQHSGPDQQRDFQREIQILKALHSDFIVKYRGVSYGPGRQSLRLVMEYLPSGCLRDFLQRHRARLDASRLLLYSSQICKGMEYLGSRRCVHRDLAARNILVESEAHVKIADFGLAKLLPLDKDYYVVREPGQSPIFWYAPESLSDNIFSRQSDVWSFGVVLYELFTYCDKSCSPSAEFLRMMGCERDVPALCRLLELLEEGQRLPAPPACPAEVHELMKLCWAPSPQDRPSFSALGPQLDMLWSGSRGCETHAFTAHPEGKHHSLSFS
TYK2, sequence (P29597 whole entry): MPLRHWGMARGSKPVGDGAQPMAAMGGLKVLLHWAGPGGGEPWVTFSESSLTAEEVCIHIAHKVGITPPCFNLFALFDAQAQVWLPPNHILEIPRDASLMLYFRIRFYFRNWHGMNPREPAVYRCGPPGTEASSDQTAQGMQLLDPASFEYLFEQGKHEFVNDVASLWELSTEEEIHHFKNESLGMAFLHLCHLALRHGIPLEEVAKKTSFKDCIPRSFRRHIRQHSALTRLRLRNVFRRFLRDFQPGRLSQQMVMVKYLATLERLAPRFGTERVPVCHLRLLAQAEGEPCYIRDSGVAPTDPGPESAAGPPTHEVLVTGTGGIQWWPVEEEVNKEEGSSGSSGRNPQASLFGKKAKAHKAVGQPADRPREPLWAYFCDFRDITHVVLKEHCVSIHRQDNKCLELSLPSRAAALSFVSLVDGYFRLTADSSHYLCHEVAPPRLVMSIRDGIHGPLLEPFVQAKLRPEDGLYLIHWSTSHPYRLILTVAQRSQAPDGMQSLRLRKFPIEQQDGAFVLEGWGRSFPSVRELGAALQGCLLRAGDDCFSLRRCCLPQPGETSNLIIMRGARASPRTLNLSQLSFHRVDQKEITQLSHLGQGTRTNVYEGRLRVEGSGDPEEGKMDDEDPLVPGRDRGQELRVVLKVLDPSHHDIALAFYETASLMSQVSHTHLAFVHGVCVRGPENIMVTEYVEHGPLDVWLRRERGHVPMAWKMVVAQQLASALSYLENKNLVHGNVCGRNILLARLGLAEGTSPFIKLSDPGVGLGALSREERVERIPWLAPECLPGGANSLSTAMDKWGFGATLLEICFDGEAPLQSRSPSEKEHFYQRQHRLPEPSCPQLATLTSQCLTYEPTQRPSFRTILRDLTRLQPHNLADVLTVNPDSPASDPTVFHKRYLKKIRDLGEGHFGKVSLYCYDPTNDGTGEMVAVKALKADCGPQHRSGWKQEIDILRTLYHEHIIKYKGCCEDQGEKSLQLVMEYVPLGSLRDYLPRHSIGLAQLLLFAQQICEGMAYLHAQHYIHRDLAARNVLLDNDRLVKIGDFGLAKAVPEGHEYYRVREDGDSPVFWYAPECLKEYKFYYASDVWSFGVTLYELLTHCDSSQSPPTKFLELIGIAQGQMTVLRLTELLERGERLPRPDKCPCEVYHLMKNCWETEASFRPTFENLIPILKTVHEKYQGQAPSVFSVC
T4 sequence (Q9UM73 19-1620): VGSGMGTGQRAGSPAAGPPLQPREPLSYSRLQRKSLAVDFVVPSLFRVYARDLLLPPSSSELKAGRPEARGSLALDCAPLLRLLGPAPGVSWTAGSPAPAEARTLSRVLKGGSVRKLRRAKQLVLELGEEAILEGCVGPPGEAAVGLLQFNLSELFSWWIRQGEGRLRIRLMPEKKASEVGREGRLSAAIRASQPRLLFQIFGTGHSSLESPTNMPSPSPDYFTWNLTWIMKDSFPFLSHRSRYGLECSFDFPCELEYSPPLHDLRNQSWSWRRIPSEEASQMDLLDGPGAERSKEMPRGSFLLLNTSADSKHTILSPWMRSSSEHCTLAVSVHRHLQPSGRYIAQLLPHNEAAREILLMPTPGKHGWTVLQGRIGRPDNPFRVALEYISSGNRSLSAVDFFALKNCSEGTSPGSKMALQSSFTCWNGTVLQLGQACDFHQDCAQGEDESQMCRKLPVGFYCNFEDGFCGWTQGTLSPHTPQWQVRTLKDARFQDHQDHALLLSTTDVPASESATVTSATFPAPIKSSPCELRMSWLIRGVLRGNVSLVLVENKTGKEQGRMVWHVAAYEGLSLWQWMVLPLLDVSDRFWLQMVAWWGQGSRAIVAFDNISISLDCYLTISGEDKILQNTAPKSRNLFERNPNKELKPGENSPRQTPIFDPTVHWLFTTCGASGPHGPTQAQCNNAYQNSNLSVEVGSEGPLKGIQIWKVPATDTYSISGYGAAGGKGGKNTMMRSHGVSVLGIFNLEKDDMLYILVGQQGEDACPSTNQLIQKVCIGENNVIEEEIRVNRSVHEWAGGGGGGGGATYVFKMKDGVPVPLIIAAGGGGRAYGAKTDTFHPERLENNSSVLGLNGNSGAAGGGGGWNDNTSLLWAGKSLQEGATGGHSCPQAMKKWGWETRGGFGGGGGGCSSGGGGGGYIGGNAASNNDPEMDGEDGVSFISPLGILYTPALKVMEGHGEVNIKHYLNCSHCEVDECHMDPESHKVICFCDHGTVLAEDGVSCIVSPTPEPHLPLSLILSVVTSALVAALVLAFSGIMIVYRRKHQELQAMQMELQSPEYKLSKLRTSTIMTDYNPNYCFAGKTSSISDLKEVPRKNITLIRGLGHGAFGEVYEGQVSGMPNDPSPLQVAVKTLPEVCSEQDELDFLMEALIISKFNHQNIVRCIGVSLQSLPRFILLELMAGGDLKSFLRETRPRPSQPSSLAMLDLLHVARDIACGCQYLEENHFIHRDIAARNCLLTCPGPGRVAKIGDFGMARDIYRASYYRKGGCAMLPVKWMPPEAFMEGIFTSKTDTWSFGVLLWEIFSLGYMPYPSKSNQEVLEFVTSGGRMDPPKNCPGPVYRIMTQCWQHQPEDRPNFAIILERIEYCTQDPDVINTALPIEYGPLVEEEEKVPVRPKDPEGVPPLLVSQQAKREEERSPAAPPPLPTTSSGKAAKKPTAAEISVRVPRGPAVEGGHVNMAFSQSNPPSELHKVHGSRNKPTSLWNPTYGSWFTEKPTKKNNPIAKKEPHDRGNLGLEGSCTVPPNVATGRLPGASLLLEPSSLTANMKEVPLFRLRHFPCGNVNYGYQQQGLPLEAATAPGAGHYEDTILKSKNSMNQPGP

| Compound | IC50 ([1]; Table B1) | IC50 ([2]; Table B1) | IC50 ([3]; Table B1) | IC50 (TYK2; Table B1) | IC50 [1, 6] | IC50 [2, 7] | IC50 [3, 8] | IC50 (TYK2) | ALK % of inhibition at a concentration of 500 nM or 1 mM [4, 9] | further results |
| --- | --- | --- | --- | --- | --- | --- | --- | --- | --- | --- |
| CC(C)(C)OC(=O)N1CCCC(NC(=O)Nc2ccc3cc2CCc2cccc(c2)Nc2ncc(Cl)c(n2)N3)C1 (centres unmarked) [Example B237, tert-Butyl 3-[({[6-chloro-2,4,8,22-tetraazatetracyclo[14.3.1.1(3,7).1(9,13)]docosa-1(20),3(22),4,6,9(21),10,12,16,18-nonaen-12-yl]amino}carbonyl)amino]piperidine-1-carboxylate] | 7.9 nM | 18 nM | 122 nM | 16 nM | – | – | – | – | – | ALK % of inhibition at a concentration of 500 nM or 1 mM [4, 5]: 6.2% |
| CC(C)NC(=O)NCCNC(=O)Nc1ccc2cc1CCc1cccc(c1)Nc1ncc(Cl)c(n1)N2 [Example B188, N-[6-Chloro-2,4,8,22-tetraazatetracyclo[14.3.1.1(3,7).1(9,13)]docosa-1(20),3(22),4,6,9(21),10,12,16,18-nonaen-12-yl]-N′-(2-{[(isopropylamino)carbonyl]amino}ethyl)urea trifluoroacetate] | 4 nM | 7.7 nM | 52 nM | 13 nM | – | – | – | – | – | ALK % of inhibition at a concentration of 500 nM or 1 mM [4, 5]: 24% |
| N#CCC(=O)Nc1ccc2cc1CCc1cccc(c1)Nc1ncc(Cl)c(n1)N2 [Example A65, N-[6-Chloro-2,4,8,22-tetraazatetracyclo[14.3.1.1(3,7).1(9,13)]docosa-1(20), 3(22),4,6,9(21),10,12,16,18-nonaen-12-yl]-2-cyanoacetamide trifluoroacetate] | – | – | – | – | 9 nM | 11 nM | 7.3 nM | 17 nM | 39% | – |
| O=C(CC1CCN(C(=O)c2ccon2)CC1)Nc1ccc2cc1CCc1cncc(c1)Nc1ncc(Cl)c(n1)N2 [Example A135, N-[6-Chloro-2,4,8,18,22-pentaazatetracyclo[14.3.1.1(3,7).1(9,13)]docosa-1(20),3(22),4,6,9(21),10,12,16,18-nonaen-12-yl]-2-[1-(isoxazol-3-ylcarbonyl)piperidin-4-yl]acetamide bis(trifluoroacetate)] | – | – | – | – | 0.4 nM | 2.3 nM | 79 nM | 0.9 nM | 30% | – |
| O=C(Nc1cc2cc(c1)OCCSc1cccc(c1)Nc1nc(ncc1Cl)N2)c1cccs1 [Example D63, N-[6-Chloro-17-oxa-14-thia-2,4,8,24-tetraazatetracyclo[16.3.1.1(3,7).1(9,13)]tetracosa-1(22),3(24),4,6,9(23),10,12,18,20-nonaen-20-yl]thiophene-2-carboxamide trifluoroacetate] | – | – | – | – | – | – | – | – | – | IC50 ([1]; Table D1): 6.8 nM; IC50 ([2]; Table D1): 1.5 nM; IC50 ([3]; Table D1): 19 nM; IC50 (TYK2; Table D1): 5.4 nM; IC50 ([4]; Table D1, 90 μM ATP): 610 nM |
| O=C(CC1CCN(C(=O)Nc2cccnc2)CC1)Nc1ccc2cc1CCc1cncc(c1)Nc1ncc(Cl)c(n1)N2 [Example A144, 4-(2-{[6-Chloro-2,4,8,18,22-pentaazatetracyclo[14.3.1.1(3,7).1(9,13)]docosa-1(20),3(22),4,6,9(21),10,12,16,18-nonaen-12-yl]amino}-2-oxoethyl)-N-pyridin-3-ylpiperidine-1-carboxamide bis(trifluoroacetate)] | – | – | – | – | 1.2 nM | 6.4 nM | > 100 nM | 11 nM | 35% | – |
| O=S1(=O)Nc2cccc(c2)Nc2nc(ncc2Cl)Nc2cccc1c2 [Example C6, 6-Chloro-15-thia-2,4,8,14,22-pentaazatetracyclo[14.3.1.1(3,7).1(9,13)]docosa-1(20),3(22),4,6,9(21),10,12,16,18-nonaene 15,15-dioxide trifluoroacetate] | – | – | – | – | – | – | – | 240 nM | – | IC50 [1]: 220 nM; IC50 [2]: 70 nM; IC50 [3]: 377 nM; IC50 [4]: > 10000 nM |
| O=C(Nc1ccc2cc1CCc1cccc(c1)Nc1ncc(Cl)c(n1)N2)C1CCN(S(=O)(=O)c2ccccc2)CC1 [Example A42, N-[6-Chloro-2,4,8,22-tetraazatetracyclo[14.3.1.1(3,7).1(9,13)]docosa-1(20), 3(22),4,6,9(21),10,12,16,18-nonaen-12-yl]-1-(phenylsulfonyl)piperidine-4-carboxamide trifluoroacetate] | – | – | – | – | 21 nM | 24 nM | 58 nM | 183 nM | 34% | – |
| CC(C)(C)OC(=O)N1CCC(CC(=O)Nc2ccc3cc2CCc2cncc(c2)Nc2ncc(Cl)c(n2)N3)CC1 [Example A70, tert-Butyl 4-(2-{[6-chloro-2,4,8,18,22-pentaazatetracyclo[14.3.1.1(3,7).1(9,13)]docosa-1(20),3(22),4,6,9(21),10,12,16,18-nonaen-12-yl]amino}-2-oxoethyl)piperidine-1-carboxylate bis(trifluoroacetate)] | – | – | – | – | 20 nM | 57 nM | 195 nM | 110 nM | 18% | – |
| O=C(CCC1CCNCC1)Nc1ccc2cc1CCc1cncc(c1)Nc1ncc(Cl)c(n1)N2 [Example A117, N-[6-Chloro-2,4,8,18,22-pentaaazatetracyclo[14.3.1.1(3,7).1(9,13)]docosa-1(20),3(22),4,6,9(21),10,12,16,18-nonaen-12-yl]-3piperidin-4-ylpropanamide tris(trifluoroacetate)] | – | – | – | – | 10 nM | 29 nM | 160 nM | 44 nM | 25% | – |
| O=C(CC1CCN(S(=O)(=O)c2ccccc2)CC1)Nc1ccc2cc1CCc1cccc(c1)Nc1ncc(Cl)c(n1)N2 [Example A205, N-[6-Chloro-2,4,8,22-tetraazatetracyclo[14.3.1.1(3,7).1(9,13)]docosa-1(20),3(22),4,6,9(21),10,12,16,18-nonaen-12-yl]-2-[1-(phenylsulfonyl)piperidin-4-yl]acetamide trifluoroacetate] | – | – | – | – | 52 nM | 199 nM | > 200 nM | > 200 nM | 23% | – |
| Clc1cnc2nc1Nc1cc(cc(CN3CCNCC3)c1)CCc1cccc(c1)N2 [Example B191, 6-Chloro-11-(piperazin-1-ylmethyl)-2,4,8,22-tetraazatetracyclo[14.3.1.1(3,7).1(9,13)]docosa-1(20),3(22),4,6,9(21),10,12,16,18-nonaene dihydrochloride] | 93 nM | 27 nM | 205 nM | 378 nM | – | – | – | – | – | IC50 [4, 10]: 1530 nM |
| Cc1cccc(S(=O)(=O)Nc2ccc3cc2CCc2cccc(c2)Nc2ncc(Cl)c(n2)N3)c1 [Example B148, N-[6-Chloro-2,4,8,22-tetraazatetracyclo[14.3.1.1(3,7).1(9,13)]docosa-1(20), 3(22),4,6,9(21),10,12,16,18-nonaen-12-yl]-3-methylbenzenesulfonamide trifluoroacetate] | 0.49 nM | 0.13 nM | 1.1 nM | 0.53 nM | – | – | – | – | – | IC50 [4, 10]: 150 nM |
| CN(Cc1ccc2cc1CCc1cncc(c1)Nc1ncc(Cl)c(n1)N2)CC1CCN(C(=O)c2ccno2)CC1 [Example B345, 1-[6-Chloro-2,4,8,18,22-pentaazatetracyclo[14.3.1.1(3,7).1(9,13)]docosa-1(20),3(22),4,6,9(21),10,12,16,18-nonaen-12-yl]-N-{[1-(isoxazol-5-ylcarbonyl)piperidin-4-yl]methyl}-N-methylmethanamine tris(trifluoroacetate)] | 17 nM | 179 nM | > 400 nM | 98 nM | – | – | – | – | – | ALK % of inhibition at a concentration of 500 nM or 1 mM [4, 11]: 40% |
| CN(Cc1ccc2cc1CCc1cncc(c1)Nc1ncc(Cl)c(n1)N2)CC1CCN(C(=O)Nc2cccnc2)CC1 [Example B348, 4-{[{[6-Chloro-2,4,8,18,22-pentaazatetracyclo[14.3.1.1(3,7).1(9,13)]docosa-1(20),3(22),4,6,9(21),10,12,16,18-nonaen-12-yl]methyl}(methyl)amino]methyl}-N-pyridin-3-ylpiperidine-1-carboxamide tetrakis(trifluoroacetate)] | 3.4 nM | 45 nM | > 400 nM | > 400 nM | – | – | – | – | – | ALK % of inhibition at a concentration of 500 nM or 1 mM [4, 11]: 47% |
| O=C(Nc1cc2cc(c1)OCCSc1cccc(c1)Nc1nc(ncc1Cl)N2)c1ccno1 [Example D59, N-[6-Chloro-17-oxa-14-thia-2,4,8,24-tetraazatetracyclo[16.3.1.1(3,7).1(9,13)]tetracosa-1(22),3(24),4,6,9(23),10,12,18,20-nonaen-20-yl]isoxazole-5-carboxamide trifluoroacetate] | – | – | – | – | – | – | – | – | – | IC50 ([1]; Table D1): 2.3 nM; IC50 ([2]; Table D1): 0.6 nM; IC50 ([3]; Table D1): 7.1 nM; IC50 (TYK2; Table D1): 2.1 nM; IC50 ([4]; Table D1, 90 μM ATP): 200 nM |
